{
  "source": "paper PMC8347364",
  "about": "(International Journal of Molecular Sciences, 2021)",
  "key": {"ureG": {"target": "T1, ureG (uncultured rumen bacterium, UniProt A0A6M3RDS9)", "T1 construct": "Strep-tagged UreG (GenBank ID: MN660252)", "T1 sequence (A0A6M3RDS9 1-203)": "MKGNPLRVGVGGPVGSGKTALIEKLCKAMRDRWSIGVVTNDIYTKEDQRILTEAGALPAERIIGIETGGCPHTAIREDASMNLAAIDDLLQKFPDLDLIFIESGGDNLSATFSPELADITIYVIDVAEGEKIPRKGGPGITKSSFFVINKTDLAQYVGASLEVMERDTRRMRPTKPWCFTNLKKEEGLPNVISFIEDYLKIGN", "assay": "malachite green GTPase assay, single concentration […], almost […] inhibition", "assay_type": "biochemical"}, "(UniProt A0A6M3RDS9)": {"target": "T2, (UniProt A0A6M3RDS9)", "T2 construct": "gene ureG; Strep-tagged UreG (GenBank ID: MN660252)", "T2 sequence (A0A6M3RDS9 1-203)": "as above", "assay": "malachite green GTPase assay (IC50); Lineweaver-Burk Ki […]; CD change; ITC of nickel binding in its presence", "assay_type": "biochemical, uncultured rumen bacterium"}},
  "data": [
    {"smiles": "C=C(C)[C@@H]1CC[C@]2(C(=O)O)CC[C@]3(C)[C@H](CC[C@@H]4[C@@]5(C)CC[C@H](O)[C@@](C)(CO)[C@@H]5CC[C@]43C)[C@@H]12", "note": "[anemosapogenin]", "values": [
      {"measurement": "inhibition at 100 µM", "setting": "ureG", "result": "~100", "unit": "%"}
    ]},
    {"smiles": "COc1ccc2c(c[n+](C)c3c4cc5c(cc4ccc23)OCO5)c1OC", "note": "[chelerythrine chloride]", "values": [
      {"measurement": "IC50", "setting": "(UniProt A0A6M3RDS9)", "result": 18.1, "unit": "µM"}
    ]},
    {"smiles": "O=C(/C=C/c1ccc(O)c(O)c1)O[C@H]1[C@H](O)C[C@](O)(C(=O)O)C[C@H]1OC(=O)/C=C/c1ccc(O)c(O)c1", "note": "[isochlorogenic acid B]", "values": [
      {"measurement": "inhibition at 100 µM", "setting": "ureG", "result": "~100", "unit": "%"}
    ]}
  ]
}
